Test results reported in a melting point compilation (Tetko et al.; mined from patent text by program, amines drawn as free bases though some values may be those of a salt).

| SMILES | melting point [°C] |
| --- | --- |
| O=C(O)CCOc1ccc2c(c1)CCO2 | 131 to 132 |
| CC(C)Oc1cc(CCC(=O)NS(=O)(=O)c2ccccc2)n(Cc2ccc(Cl)cc2Cl)n1 | 184 to 185 |
| COc1ccc(Oc2cccc(C(=O)O)c2)cc1 | 141 to 143 |
| NC(=O)Nc1ccc(C(O)(C(F)(F)F)C(F)(F)F)cc1 | 176 to 179 |
| N#Cc1c(Br)[nH]c(-c2ccccc2)c1C#N | 225 to 258 |
| c1coc(C2Nc3ccccc3N3CCc4cccc2c43)c1 (stereo unspecified) | 141 to 144 |
| Oc1ccc(-c2ccc3c(-c4ccccc4)c(O)ccc3c2)cc1 | 142 to 146 |
| COc1ccc(C(=O)Nc2ccccc2)c2c1OCC2CC(=O)OCc1ccccc1 (stereo unspecified) | 179 to 180 |
| CN(CC(=O)N(C)c1ccc(OCC(=O)N[C@@H](CC(N)=O)C(=O)[C@@H](C(N)c2ccccc2)[C@H](O)C(=O)N2CCC[C@H]2C(=O)NC(C)(C)C)cc1)c1ccccc1 (stereo partly specified) | 107 to 112 |
| Cc1cc(C(=O)N2Cc3cccn3Cc3ccccc32)ccc1N | 232 to 234 |
| Fc1cc(Br)ccc1-c1ccc(Cl)cc1Cl | 63 to 65 |
| Cc1nc(NCc2ccccc2C)c2nc(-c3ccccc3)cc-2[nH]1 | 277 to 281 |
| CC1(C)C(Cl)(Cl)C1(Cl)C(=O)O (stereo unspecified) | 148 to 150 |
| COC(=O)COc1cccnc1 | 174 |
| O=c1c(Cc2ccccc2)cn2c3ccc(Cl)cc3c3cc(Cl)cc1c32 | 206 to 209 |
| CSc1ccc(CC2CCc3cc(OCCn4ccnc4)ccc3C2=O)cc1 (stereo unspecified) | 114 to 117 |
| CCn1nnc2c(sc3nc(C)ccc32)c1=O | 165 to 167 |
| O=C(O)C1CNc2ccccc2CN1 (stereo unspecified) | 183 to 185 |
| CN(COC(=O)Cc1ccccc1)C(=O)OC(C)(C)C | 96 to 98 |
| Clc1ccc(-c2noc(CCC#Cc3ccccn3)n2)c(Cl)c1 | 77 to 78 |
| CC(C)(OC(=O)C1C2CCC(C2)C1C(F)(F)F)C(F)(F)F (stereo unspecified) | 87 to 90 |
| CCCCS(=O)(=O)NCc1ccc(C(=O)CN2CCN(c3ccncc3)CC2)cc1 | 101 to 103 |

| SMILES | melting point [°C] |
| --- | --- |
| CC(=O)NC[C@H]1CN(c2ccc(N3C[C@H]4CN(C(=O)OCc5ccccc5)C[C@H]4C3)c(F)c2)C(=O)O1 | 165 to 168 |
| CCCCCC(CC(=O)NO)C(=O)NC(C(=O)N1CCCC1CO)C(C)C (stereo unspecified) | 148 to 149 |
| CCCc1ccc(C(=O)NCCc2cccs2)cc1 | 97 to 99 |
| CC(=O)C=Cc1cccc(OCCF)c1OCCF | 71 to 72 |
| O=[N+]([O-])c1ccc(S(=O)(=O)NCc2ccccc2)c([N+](=O)[O-])c1 | 150 to 151 |
| c1ccc(-c2csc(-c3cnn4cccnc34)c2)cc1 | 72 to 72.5 |
| OC1CSC(Oc2cccc(-c3cccnc3F)c2)C(O)C1O (stereo unspecified) | 160 |
| CC1(C)Nc2ccccc2-c2c([N+](=O)[O-])cnn21 | 193 to 195 |
| CCN1CCN(c2nc(C)c(C(=O)NCc3cccnc3)s2)C1=O | 163 to 164 |
| CCOC(=O)C1=NN(c2ccc([N+](=O)[O-])cc2)C2(N3CCCC3)CCCC12 (stereo unspecified) | 118 |
| O=C(NC1CC1)c1ccc(N2CCNCC2)c(F)c1 | 141 to 143 |
| CC(C)=C(C#N)C(=O)NCc1ccc(Cl)c(Cl)c1 | 131 to 132 |
| COc1ccc(CC(=O)NC(NC(=NC#N)Nc2ccccc2Cl)C(C)(C)C)cc1OC (stereo unspecified) | 135 to 136 |
| CC(I)CC(F)(F)C(F)(F)C(F)(F)C(F)(F)C(F)(F)C(F)(F)CC(C)I (stereo unspecified) | 53 |
| COC(=O)C1=C(c2ccccc2)C(c2ccccc2)OC1=O (stereo unspecified) | 113 to 115 |
| C#CC(CC)(CC)NC(=O)C(CCN1CCN(c2ccccc2OC)CC1)c1ccccc1 (stereo unspecified) | 110 to 112 |
| CC1(C)C2=C(CCC2=O)c2ccccc21 | 114 |
| Brc1ccc2c(c1)N=C(N1CCSCC1)c1cccc3c1N2CC3 | 165 to 167 |
| CC(=O)Nc1ccc(C(O)C2CCN(CCc3ccccc3)CC2)cc1 (stereo unspecified) | 173 to 174 |
| O=C1CC2CCS(=O)c3ccccc3C2=NN1c1ccc(Cl)cc1 (stereo unspecified) | 190 to 191 |
| CCCSc1cc(OCc2ccc(Cl)cc2)ccc1C | 35 to 36 |
| COc1ncnc(-c2cc(NS(C)(=O)=O)c(C#N)cc2F)c1C | 218 to 220 |

| SMILES | melting point [°C] |
| --- | --- |
| COc1ccc(CN2CCC(c3cc(-c4ccc(Cl)cc4)[nH]n3)CC2)cc1 | 166 to 168 |
| Cc1c(C(=O)c2cnn(C)c2O)ccc2sc(=O)n(C)c12 | 192 to 195 |
| CCOC(=O)Cc1ccc(NC(=O)C(COc2ccccc2)NS(=O)(=O)c2ccc(I)cc2)cc1 (racemic) | 178 to 180 |
| CC(CO)NC(=O)C(NC(=O)OCc1ccccc1)C(Cc1ccccc1)C(=O)O (stereo unspecified) | 110 to 111 |
| Cn1cc2c(C3C(=O)Nc4ccc(Br)cc43)nc(NCCN)nc2n1 (stereo unspecified) | 260 to 262 |
| FC(F)(F)c1ccc(-c2cc(Oc3cccc4ccncc34)ncn2)cc1 | 194 to 195 |
| CC(=O)N[C@@H]1C(O)O[C@H](COC(C)=O)[C@@H](O)[C@@H]1O (stereo partly specified) | 47 to 51 |
| CC1(C)Oc2ccc(C#N)cc2C(OC(=O)C2CCCN2S(=O)(=O)c2ccc(Cl)cc2)C1Br (stereo unspecified) | 178 to 180 |
| CP(C)(=O)c1ccc(C(=O)O)cc1 | 101 |
| COc1ccc(CCC(=O)NNC(=O)c2ccc3[nH]ncc3c2)cc1C(F)(F)F | 224 to 225 |
| CC(C)(CCl)C(=O)NCc1ccc(Cl)cc1 | 97 to 98 |
| C(=C\c1nc2ccccc2n1-c1ccccn1)/c1cccs1 | 130 to 131 |
| COc1nc(C)c(C)nc1N(C)C(=O)N1CCN(c2cc(Cl)cc(Cl)c2)CC1 | 97 to 99 |
| COc1ccc2nc(-c3csc4ccccc34)[nH]c(=O)c2c1 | 289 to 290 |
| COc1cc(N)c(C(=O)c2ccnc(Cl)c2)cc1OC | 132 to 134 |
| CCCCCCCCCCCCCCCCS(=O)(=O)c1ccc(-n2c(=O)cc(N)n2C(=O)OCC)cc1 | 92 |
| O=C(O)CCc1cnoc1-c1ccc(F)cc1 | 126 to 127 |
| Cn1cc(O)c(=O)c2ccc(Cl)cc21 | 225 to 228 |
| CNC(c1ccc(O)cc1)c1csc(S(N)(=O)=O)c1 (stereo unspecified) | 127 to 129 |
| CN(CCCCCNC(=NCCSCc1csc(NC(=N)N)n1)NC#N)CCC(c1ccc(Cl)cc1)c1ccccn1 (stereo unspecified) | 87 to 90 |
| COc1cc2oc(=O)c3c(c2cc1[N+](=O)[O-])CCN(CC(C)=O)C3 | 222 to 225 |
| Nc1cc(C(F)(F)F)cc2c(Cl)ccnc12 | 57 to 58 |

| SMILES | melting point [°C] |
| --- | --- |
| Cc1cc(Cl)cnc1N | 63 to 64 |
| C=CCC(=O)c1cnn(-c2ccccn2)c1S(N)(=O)=O | 140 to 142 |
| O=C1NC(=O)c2c1c(-c1ccccc1)cc1oc3ccc(O)cc3c21 | 288 to 290 |
| CCCCCCCCCCCCNC1=NS(=O)(=O)N=C1NCCSCc1ccc(CN(C)C)o1 | 136 to 139 |
| CCCCNC1=NS(=O)(=O)c2sc(Cl)cc2N1 | 218 to 219 |
| Cc1c(C)c2c(c(C)c1Br)C(=O)C(C)(C)O2 | 92 to 93 |
| CCOC(=O)CCc1nc2cc3c(cc2[nH]1)NC(=O)C3(C)C | 194 to 196 |
| CC(C)(C)NC(=O)c1nn(-c2ccc(F)cc2)c2c1C1CCC2CC1 | 190 to 193 |
| CCCn1cc(C(=O)OCC)c(=O)c2cc(F)c(-n3cccc3)cc21 | 128 to 130 |
| O=C(O)c1cn(CCc2ccc(O)cc2)c2cc(C3CC3)nn2c1=O | 265 to 270 |
| Cc1c(SCCN)ccnc1CSc1nc2ccccc2[nH]1 | 158 to 160 |
| C=C1CC(COc2cccc3cccnc23)(c2ccccc2)OC1=O (stereo unspecified) | 101 to 102 |
| CCCN(CCCCNC(=O)N1CC=C(c2ccccc2)CC1)C1CCc2ncsc2C1 (stereo unspecified) | 115 |
| Nc1nc(/C(=N/OC2(C(=O)OCc3ccc([N+](=O)[O-])cc3)CCCCC2)C(=O)O)cs1 | 184 to 185 |
| O=S1(=O)N=CN(C2CC2)c2ccccc21 | 191 to 194 |
| OCc1ccc(-c2ccc3nc(-c4ccc(Cl)cc4)cn3c2)o1 | 197 to 199 |
| Cn1nc2nnsc2c1Br | 99 to 101 |
| C=C(C)c1nc2cc3c(cc2[nH]1)NC(=O)C3(C)C | 270 to 273 |
| CCOC(=O)c1cc(C(C)(C)C)n(-c2ccc(S(C)(=O)=O)cc2)n1 | 175 to 178 |
| CCc1ccc(Oc2cnc[nH]c2=O)cc1 | 144 to 146 |
| CCCCC12COC(c3ccc(Br)cc3)(OC1)SC2 | 110 to 112 |
| Cn1cccc1CCNCC(O)COc1cccc2[nH]ccc12 (stereo unspecified) | 105 to 106 |

| SMILES | melting point [°C] |
| --- | --- |
| CCCC(=O)Nc1cccc(C2(c3cc(C(=O)CC)n(CC)c3)N=C(N)N(C)C2=O)c1 (stereo unspecified) | 201 to 205 |
| CC(C(=O)O)c1ccc2cc(OCC=C(Cl)Cl)ccc2c1 (stereo unspecified) | 107 to 109 |
| O=C(O)CCCCCn1nnnc1S | 100 |
| CCOC(=O)c1nc(NC(C)=O)sc1Cc1ccccc1 | 178 to 180 |
| COc1cc(Br)c(C(C)=O)cc1O | 110 to 111 |
| CSCC[C@H](NC(=O)c1cc(NC(Cn2ccnc2)c2ccc(F)cc2)ccc1CCc1ccc(F)cc1)C(=O)O (stereo partly specified) | 115 to 120 |
| CCc1cc(C(=O)c2ccccc2Cl)c(-n2c(C)nnc2CNC(=O)c2cc3ccccc3n2CC(=O)O)s1 | 208 to 210 |
| CCOC(=O)C1CCc2cc(O)c(C(C)=O)cc2C1 (stereo unspecified) | 73 to 75 |
| CCN1CCN2C1=Nc1ccc(Cl)cc1C2c1ccccc1 (stereo unspecified) | 145 to 146 |
| CCOP(=O)(Cc1c(C)cc(O)cc1C1CCCCC1)OCC | 73 |
| COc1cc([N+](=O)[O-])c2ncccc2c1Cl | 204 to 206 |
| O=C(CCC(=O)N1CCC[C@H]1C(=O)O)c1ccc(Br)s1 | 166 to 168 |
| CCC(CC)Nc1cc(C)nc(Cl)c1N | 165 to 166 |
| CCCCCCCCCC(=O)c1cc(OC)c(Cl)cc1OC | 53 to 54 |
| CC1(C)CCC(C)(C)c2c(OCc3ccc(F)cc3)cc(C(=O)/C=C/c3ccc(C(=O)O)cc3)cc21 | 241 |
| NCCCCOc1cccc(CN2CCCCC2)c1 | 92 to 93 |
| COC(=O)c1ccc(CCCOCCCCCCNCC(O)c2ccc(O)c(CO)c2)cc1 (stereo unspecified) | 43 to 45 |
| CCCn1c(=O)cc(Cl)n(Cc2ccc(-c3ccccc3C#N)cc2)c1=O | 146 to 147 |
